# Data reported in patent US5997843A, “Radiometal complexes that localise in hypoxic tissue” (priority 1993, dated 1999).
# Columns and labels:
# [1] = tested on: isolated (Langendorff) rat hearts; assay: Isolated perfused heart (Langendorff), hypoxic vs oxic uptake/retention; settings: for Hypoxic/Oxic Ratio (H/O): ^99m Tc complex (or ^123 I-IAZA), 20 min infusion, 15 min washout; for Normalised Hypoxic Retention: relative to ^3 H-misonidazole activity
# Description: A 15-minute cold buffer washout period follows. y activity in the heart is monitored using a collimated NaI probe detector positioned over the heart.
# Activity in hearts, relative to perfusate activity, is calculated for each nuclide and data evaluated for each compound for activity in hypoxic and oxic hearts (hypoxic:oxic ratio) and also relative to the 3 H-misonidazole activity (normalised retention) using Formula 1. [formula] Results
# Biodistribution in rats = type: in vivo, male rats; settings: i.v.
# Description: Biodistribution in Rats--Methods
# The quantitative biodistribution was studied in male rats at 2 minutes, 1 hour and 4 hours post-injection
# Rats under light anaesthesia were injected intravenously with 0.1 ml of test agent. Three rats were sacrificed (anaesthesia followed by exsanguination) at 2, 60 and 240 minutes, post-injection. The percentage of the injected dose in the excreta and organs and tissues was determined by dissection and assay for radioactivity in an automatic gamma counter.
# [2] = 2 min post-injection, ^99m Tc complex
# [3] = 240 min post-injection (third printed value)
# [4] = second of two values, 60 or 240 min not assignable
Bladder/Urine (Biodistribution in rats; 2 min post-injection) [percent injected dose],Blood (Biodistribution in rats; 2 min post-injection) [percent injected dose],Gut (Biodistribution in rats; 2 min post-injection) [percent injected dose],Kidney (Biodistribution in rats; 2 min post-injection) [percent injected dose],Liver (Biodistribution in rats; 2 min post-injection) [percent injected dose],Muscle (Biodistribution in rats; [2]) [percent injected dose],Gut (Biodistribution in rats; 60 min post-injection) [percent injected dose],Muscle (Biodistribution in rats; 60 min post-injection) [percent injected dose],Muscle (Biodistribution in rats; [3]) [percent injected dose],Gut (Biodistribution in rats; 240 min post-injection) [percent injected dose],Blood (Biodistribution in rats; [4]) [percent injected dose],Kidney (Biodistribution in rats; [4]) [percent injected dose],Liver (Biodistribution in rats; [4]) [percent injected dose],Structure (SMILES),Hypoxic/Oxic Ratio (H/O) [1],Normalised Hypoxic Retention [1],hypoxia selectivity / hypoxic/oxic ratio / hypoxic retention (in words) [1]
0.8,11.8,12.1,9.8,12.9,25.6,23.2,9.2,7.5,31.3,3.0,3.4,11.6,"CCC(=NO)C(C)(C)NCCCCNC(C)(C)C=NO [Compound VII, 3,8-diaza-10-(hydroxyimino)-2,2,9,9-tetramethyl dodecanal oxime]",8.8,1.5,
0.6,9.0,13.9,7.8,13.6,29.7,36.2,7.4,2.4,46.7,1.8,2.5,13.1,"CCC(=NO)C(C)(C)NCCCCNC(C)(C)C(CC)=NO [Compound VIII, 5,10-diaza-4,4,11,11-tetramethyltetradecan-3,12-dione dioxime]",34,2.2,
,,,,,,,,,,,,,"O=[N+]([O-])c1nccn1[C@H]1O[C@H](C[123I])[C@@H](O)[C@@H]1O [^123 I-IAZA, ^123 I-iodoazomycin arabinoside, reference compound]",10,2.7,
0.8,10.1,13.8,7.7,12.9,32.1,31.6,8.3,3.0,37.7,2.0,2.2,11.2,"CCC(=NO)C(C)(C)NCCCCNC(C)(C)C(C)=NO [Compound IX, 4,9-diaza-3,3,10,10-tetramethyltridecan-2,11-dione dioxime]",8.4,2.1,
0.6,13.5,8.6,12.5,12.2,24.8,16.3,13.4,10.0,21.2,5.3,10.4,13.7,"CC(C)(C=NO)NCCCCNC(C)(C)C=NO [Compound VI, 3,8-diaza-2,2,9,9-tetramethyldecan-1,10-dial dioxime]",3.2,0.67,
0.2,18.1,8.2,11.3,9.7,26.9,25.0,10.1,3.3,35.6,1.1,4.2,5.4,"CC(=NO)C(C)(C)NCCCCCNC(C)(C)C(C)=NO [Compound III, 4,10-diaza-3,3,11,11-tetramethyltridecan-2,12-dione dioxime]",,,
1.1,9.8,11.4,8.8,18.4,25.7,23.0,10.1,7.1,25.6,5.0,8.8,20.4,"CC(=NO)C(C)NCCCCNC(C)C(C)=NO (stereo not drawn) [Compound XIII, 4,9-Diaza-3,10-dimethyldodecan-2,11-dione dioxime]",,,
1.2,12.8,9.5,14.2,10.2,27.4,21.3,5.7,1.9,32.1,1.7,6.2,6.3,"COCC(=NO)C(C)(COC)NCCCCNC(C)(COC)C(COC)=NO (stereo not drawn) [Compound XV, 3,10-Bis(methoxymethyl)-4,9-diaza-1,12-dimethoxy-3,10-dimethyldodecan-2,11-dione dioxime]",1.2,1.4,

Structure (SMILES),Bladder/Urine (Biodistribution in rats; 2 min post-injection) [percent injected dose],Blood (Biodistribution in rats; 2 min post-injection) [percent injected dose],Gut (Biodistribution in rats; 2 min post-injection) [percent injected dose],Kidney (Biodistribution in rats; 2 min post-injection) [percent injected dose],Liver (Biodistribution in rats; 2 min post-injection) [percent injected dose],Muscle (Biodistribution in rats; [2]) [percent injected dose],Gut (Biodistribution in rats; 60 min post-injection) [percent injected dose],Muscle (Biodistribution in rats; 60 min post-injection) [percent injected dose],Muscle (Biodistribution in rats; [3]) [percent injected dose],Gut (Biodistribution in rats; 240 min post-injection) [percent injected dose],Blood (Biodistribution in rats; [4]) [percent injected dose],Kidney (Biodistribution in rats; [4]) [percent injected dose],Liver (Biodistribution in rats; [4]) [percent injected dose],Hypoxic/Oxic Ratio (H/O) [1],Normalised Hypoxic Retention [1],hypoxia selectivity / hypoxic/oxic ratio / hypoxic retention (in words) [1]
"CC(C)(C=NO)NCCCCNC(C)(C)C(Cn1ccnc1[N+](=O)[O-])=NO [Compound XII, 3,8-diaza-10-hydroxyimino-11-(2-nitro-1-imidazolyl)-2,2,9,9-tetramethylundecanal oxime]",1.2,10.8,13.4,13.3,16.0,23.9,31.9,8.2,5.2,35.5,2.0,5.5,11.0,9.5,1.9,little or no effect on both the hypoxic/oxic ratio and normalised hypoxic retention
"CC(C)(NCCCCNC(C)(C)C(Cn1ccnc1[N+](=O)[O-])=NO)C(Cn1ccnc1[N+](=O)[O-])=NO [Compound XI, 1,12-bis(2-Nitro-1-imidazolyl)-4,9-diaza-3,3,10,10-tetramethyldodecan-2,11-dione dioxime]",0.2,10.8,18.2,8.6,21.7,18.7,56.7,5.6,3.1,66.0,1.4,2.1,7.3,3.4,0.98,further reduces the hypoxia selectivity
"COC(=O)C(CCCNC(C)(C)C(C)=NO)NC(C)(C)C(C)=NO (stereo not drawn) [Compound XVI, 4,9-diaza-3,3,10,10-tetramethyldodecan-2,11-dione dioxime-8-carboxylic acid methyl ester]",0.3,17.8,6.3,13.8,4.4,24.4,6.5,3.7,2.3,12.4,3.1,7.6,2.5,4.0,0.22,
